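A five-concentration, 48-hour dose response in 96-well plates underlies each endpoint, interpolated linearly between surrounding concentrations. GI50 marks 50% less growth. TGI is the concentration that stops growth completely.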
Experiments:
Assay in all cases: NCI-60 cell line screen, 48 h
[1] = test system: SK-MEL-28 melanoma
[2] = test system: HCC-2998 colon
[3] = test system: SF-539 CNS
[4] = test system: HCT-15 colon
[5] = test system: MCF7 breast
[6] = test system: MALME-3M melanoma
[7] = test system: NCI-H522 lung
[8] = test system: U251 CNS
[9] = test system: CCRF-CEM leukemia
[10] = test system: SR leukemia

Row | SMILES | TGI [1] [µM] | TGI [2] [µM] | TGI [3] [µM] | TGI [4] [µM] | TGI [5] [µM] | TGI [6] [µM] | TGI [7] [µM] | TGI [8] [µM] | TGI [9] [µM] | TGI [10] [µM] | GI50 [1] [µM] | GI50 [2] [µM] | GI50 [3] [µM] | GI50 [4] [µM] | GI50 [5] [µM] | GI50 [6] [µM] | GI50 [7] [µM] | GI50 [8] [µM] | GI50 [9] [µM] | GI50 [10] [µM]
1 | COc1ccc2c3c1OC1CC(O)C=CC31CCN(C)C2 (configuration not stated) | > 150 | > 150 | > 33.8 | > 150 | > 48.8 | > 150 | > 150 | > 150 | > 150 | – | – | – | – | – | – | – | – | – | – | –
2 | CCCC/C=C1\CCC(CN2CCCCC2)C1=O (configuration not stated) | 36.7 | 22.6 | 36.1 | 20.6 | > 100 | 15.4 | – | 44.1 | 16.2 | > 24.7 | – | – | – | – | – | – | – | – | – | –
3 | CCOC(=O)/C(O)=C1\C(=O)N(C)C(=O)C1c1ccc(OC)c(OC)c1 (configuration not stated) | > 100 | > 100 | > 100 | > 100 | > 100 | > 100 | > 100 | > 100 | > 100 | – | – | – | – | – | – | – | – | – | – | –
4 | O=C(Nc1ccccc1F)c1c(O)nc2sccn2c1=O | > 10 | > 10 | > 10 | > 10 | > 10 | > 10 | > 10 | > 10 | > 10 | > 10 | – | – | – | – | – | – | – | – | – | –
5 | O=C1C(Br)=CC2([N+](=O)[O-])CCNc3c(O)c4c5c(c3C2=C1Br)=NCCC=5C=N4 (configuration not stated) | 9.95 | 13.2 | 4.55 | 2.16 | 1.72 | – | 0.214 | 3.96 | 1.41 | – | – | – | – | – | – | – | – | – | – | –
6 | COc1ccc2[nH]c(C(=O)N3CC(CCl)c4ccc(N)cc43)cc2c1 (configuration not stated) | > 31.6 | 0.383 | 1.7 | > 50.4 | > 39.1 | 0.302 | 0.0882 | > 31.6 | 1.44 | > 100 | – | – | – | – | – | – | – | – | – | –
7 | COC(=O)/C=C\Sc1ccn(/C=C\C(=O)OC)c(=S)n1 | > 100 | > 100 | 36.9 | 42.6 | 36.5 | 53.9 | 31.4 | 39.9 | > 100 | 38.8 | – | – | – | – | – | – | – | – | – | –
8 | O=C(CCCn1cnc([N+](=O)[O-])n1)NCCn1ccnc1[N+](=O)[O-] | > 100 | – | – | > 100 | > 100 | – | > 100 | > 100 | > 100 | > 100 | – | – | – | – | – | – | – | – | – | –
9 | CC1(C)OP23(NC(=O)OC2(C(F)(F)F)c2ccccc2O3)OC1(C)C (configuration not stated) | > 100 | – | > 100 | > 100 | – | > 100 | > 100 | > 100 | > 100 | – | – | – | – | – | – | – | – | – | – | –
10 | CC(=O)O[C@H]1CC[C@@]2(C)C(=CC[C@@H]3[C@@H]2CC[C@]2(C)C(c4cccnc4)=CC[C@@H]32)C1 | > 100 | > 100 | > 100 | > 100 | > 100 | 33.9 | > 100 | > 100 | > 100 | 8.35 | 3.53 | 14 | 3.14 | 4.48 | 4.84 | 3.24 | 38.5 | 4.47 | 16.7 | 3.01
11 | N/N=C(\C(=O)Nc1c(Cl)cc([N+](=O)[O-])cc1Cl)C(c1cnc2ccc([N+](=O)[O-])cc2n1)[N+](=O)[O-] (configuration not stated) | > 100 | > 100 | > 100 | > 100 | – | – | 53.3 | > 100 | > 100 | > 100 | – | – | – | – | – | – | – | – | – | –

— PubChem BioAssay (NCI)
